One experiment concerns MMP-2. The experiment in a line: Substrate phage display with NGS: relative probability (RP) of P3-P1' tetramer clusters. Format: biochemical, human. As to conditions: MMP2 - no binning; average relative probability (RP) of the P3-P1' tetramer; redundant tetramers have been averaged out.
YQSL came in with an avg_RP of 16.6669.
Still for that read-out and setting: as for PWGL, the figure is 31.3204; as for TMAL, 0.4939; as for VMRL, 0.4281.
Same read-out and setting: as for AFSL, the figure is 10.3321; as for SASL, 17.7881; as for AKHL, 9.4662.
For SGAY, the avg_RP was found to be 6.7841.
In turn, SAYL had an avg_RP of 11.6614.
ADLI: the avg_RP is reported as 0.5875.
Same read-out and setting: as for SQHL, the figure is 0.2367; as for LWRI, 0; as for HQWL, 19.2059.
In turn, ANMI had an avg_RP of 1.6014.
On the same count and under the same terms, then YRSM, with 5.2577; and SARL, with 4.5839.
The same measure, in the same setting: then NARL, with 12.6743.
In turn, GWDL registered an avg_RP of 0.
For the substance VLPL, the avg_RP was 20.3086.
The substance YAHM showed an avg_RP of 12.8446.
Substance IDLL showed an avg_RP of 0.1325.
On the same count and under the same terms, then LAQI, with 17.7137; and PDQL, with 0.2814.
Take VRHI: the avg_RP came out at 19.1429.
Substance PMGM came in with an avg_RP of 28.512.
On the same count and under the same terms, then ALWL, with 7.2418.
The same measure, in the same setting: then GHRL, with 0.0505; and GFAL, with 0.4341; and TWRL, with 0.
On the same count and under the same terms, as for VNRI, the figure is 0; as for MHEL, 0.0484.
Take ALDL: the avg_RP is given as 2.4602.
Same read-out and setting: then TAWL, with 24.7743.
Still for that read-out and setting: then AQHI, with 7.3783; and ILHL, with 15.3505; and VGHL, with 31.6783.
Consider PSRI, for which the avg_RP was found to be 23.675.
On the same count and under the same terms, as for PAWL, the figure is 34.876.
Still for that read-out and setting: then PGSM, with 25.6264; and SLRL, with 0.
The same measure, in the same setting: as for ANSI, the figure is 0.424; as for ANYI, 1.6587.
GAWL had an avg_RP of 11.7256.
For IYGL, the avg_RP turned out to be 9.4242.

The experiment is the same for the next values; noted with them: MMP2 - no binning; average relative probability of the P3-P1' tetramer; redundant tetramers have been averaged out.
As to LWYL, the avg_RP came out at 0.6796.
On the same count and under the same terms, as for VWNI, the figure is 4.0144; as for SGPL, 2.1571; as for ARAW, 17.4628.
Same read-out and setting: as for PYTL, the figure is 16.827; as for LYGL, 17.2472.
In the case of MLHM, the avg_RP is reported as 4.7134.
Still for that read-out and setting: then LRNI, with 19.0698; and WGNL, with 14.7295; and PHSM, with 24.6739.
On the same count and under the same terms, as for WAHL, the figure is 7.453; as for VLWL, 11.1539.
Same read-out and setting: then SFNL, with 1.0952.
Substance LHSL returned an avg_RP of 18.7402.
The same measure, in the same setting: then PIPL, with 33.1236; and LYHL, with 4.5289.
Same read-out and setting: as for YANM, the figure is 22.6837; as for VLAL, 13.5229.
With WLPI, the avg_RP amounted to 0.6666.
Same read-out and setting: as for IFRL, the figure is 0.1412.
YFNL gave an avg_RP of 0.
For IYEL, the avg_RP turned out to be 0.2382.
Still for that read-out and setting: then FEHL, with 1.2103; and AMNL, with 16.2852; and VFGL, with 12.5523.
Still for that read-out and setting: then MDLL, with 0.2864.
As for PRYW, the avg_RP is on record as 20.9965.
The same measure, in the same setting: then PEWM, with 12.3271; and VYDL, with 1.2439.
Still for that read-out and setting: as for ASHM, the figure is 12.3873; as for SMNL, 2.1645; as for QLAM, 5.2406.
Still for that read-out and setting: then FRNL, with 9.8211; and PFHL, with 23.4724; and INML, with 5.8285.
VRNW registered an avg_RP of 17.7682.
Same read-out and setting: as for LNYL, the figure is 12.3459.
The substance YMGL had an avg_RP of 0.0982.
Still for that read-out and setting: then YFSM, with 0.0661.
Same read-out and setting: as for VKHL, the figure is 14.8595.
Still for that read-out and setting: as for PSSL, the figure is 35.4913; as for WQNL, 6.2916.
On to LMRL, for which the avg_RP amounted to 0.1149.
Take LGML: the avg_RP turned out to be 29.0922.
In turn, VFWM registered an avg_RP of 10.3215.
Still for that read-out and setting: as for AQYL, the figure is 7.443.
On the same count and under the same terms, then PLMM, with 20.5706.
The same measure, in the same setting: then SAWL, with 18.9346.
With GFSL, the avg_RP came out at 0.0975.
Still for that read-out and setting: as for PASL [P3-P1' tetramer cluster], the figure is 36.4285.
YSNL gave an avg_RP of 25.2832.
The substance YGHL had an avg_RP of 11.3746.
As to LANL, the avg_RP was determined as 34.4823.
As for AMNI, the avg_RP stood at 4.1669.
On the same count and under the same terms, as for WESL, the figure is 0.6249; as for VYSL, 16.838; as for LDWM, 7.0331.
Same read-out and setting: as for IQSL, the figure is 25.2682; as for IYNL, 11.935; as for PSFL, 29.537.
On the same count and under the same terms, then MWHL, with 0.2013.
Substance PLAL gave an avg_RP of 34.4921.
Same read-out and setting: as for ASAL, the figure is 28.9092; as for AFNL, 16.2959; as for TYAL, 5.848.
Still for that read-out and setting: then SWAW, with 0.0563; and SGRL, with 0.7262; and VSYL, with 20.2936.
Still for that read-out and setting: then FGNL, with 26.0275; and HQNL, with 17.7487; and SGEL, with 0.1149.
On to FQSL, for which the avg_RP worked out at 13.5551.
PRWM returned an avg_RP of 32.3694.
The substance PQSL returned an avg_RP of 33.5105.
PDFL returned an avg_RP of 1.02.
Still for that read-out and setting: as for ALAL, the figure is 22.1184.

The same experiment, now with this note: MMP2 - no binning; average relative probability of the tetramer; redundant tetramers averaged out.
The substance VRGM gave an avg_RP of 26.4376.
Same read-out and setting: then SRAL, with 12.4506; and PLVY, with 0.5489; and ISAL, with 31.8319.
On the same count and under the same terms, then IRFL, with 12.1004; and WFNL, with 0; and LRML, with 9.0498.
Same read-out and setting: as for VNHL, the figure is 12.8499; as for WSWL, 7.8776.
As to PSWV, the avg_RP amounted to 21.5104.
On the same count and under the same terms, then VYWM, with 12.492.
Same read-out and setting: as for LRNL, the figure is 27.1336; as for WRAY, 17.4833.
In the case of PSAL [P3-P1' tetramer cluster], the avg_RP amounted to 36.1873.
On the same count and under the same terms, as for VWPL, the figure is 5.2943; as for LGYL, 24.8925; as for WRNL, 6.7583.
Same read-out and setting: then GLYL, with 0.0762; and VRFL, with 15.0438.
The substance PYSW registered an avg_RP of 16.4352.
Same read-out and setting: then PKWI, with 22.5059; and PLQI, with 21.9897.
On to AWNL, for which the avg_RP stood at 14.0049.
On to SNWL, for which the avg_RP amounted to 9.68.
The same measure, in the same setting: as for AHGI, the figure is 8.8809.
PAPW came in with an avg_RP of 31.7353.
Take YMSL: the avg_RP is given as 0.0725.
HAHL showed an avg_RP of 20.0775.
The same measure, in the same setting: then YAGL, with 20.9112; and ANSL, with 10.0738.
On the same count and under the same terms, then PWNY, with 16.9576.
As for VRKL, the avg_RP is listed as 0.
Same read-out and setting: as for PWHI, the figure is 10.946; as for TFHL, 0.1298.
On the same count and under the same terms, then WQGL, with 12.939.
Still for that read-out and setting: as for LRAM, the figure is 29.407.
Turning to SLNL, the avg_RP amounted to 3.3019.
Same read-out and setting: as for PTAL, the figure is 32.8941.
MAHL [P3-P1' tetramer cluster] showed an avg_RP of 29.5006.
Same read-out and setting: as for PRSH, the figure is 18.6153; as for PMDY, 10.9087.
PVHM yielded an avg_RP of 25.8779.
The substance HAWM had an avg_RP of 17.1047.
The same measure, in the same setting: as for PQGM, the figure is 29.6059; as for PQWI, 28.1021.
Same read-out and setting: then VRYL, with 18.3724.
The same measure, in the same setting: then PVNL, with 34.508.
VGAL: the avg_RP was found to be 32.8382.
GRAL registered an avg_RP of 7.9443.
Still for that read-out and setting: as for VRAH, the figure is 14.8064.
On the same count and under the same terms, then PQRM, with 19.3209; and PLML, with 25.0435; and INAL, with 12.2423.
In turn, VYWL yielded an avg_RP of 16.4375.
Same read-out and setting: as for VKGM, the figure is 15.5854; as for PWKL, 9.9628.
On the same count and under the same terms, as for WAHI, the figure is 0.0575.
Same read-out and setting: then LLSL, with 2.0177; and PRYM, with 28.0367.

Staying with this experiment, now noted: tetramer clusters unique to the MMP-2 selectome, MMP-2 RP.
On to HANL [P3-P1' tetramer cluster], for which the relative_probability was 30.86.
Still for that read-out and setting: then MGNL [P3-P1' tetramer cluster], with 31.00; and MNWL [P3-P1' tetramer cluster], with 30.10.
Still for that read-out and setting: as for LANW [P3-P1' tetramer cluster], the figure is 29.93; as for MAHL [P3-P1' tetramer cluster], 29.50.
For MGAL [P3-P1' tetramer cluster], the relative_probability turned out to be 31.51.
On the same count and under the same terms, then IAAI [P3-P1' tetramer cluster], with 29.40; and MANL [P3-P1' tetramer cluster], with 32.42.

The experiment is the same for the next values; noted with them: tetramer probability in MMP2 set / naive library; 200 nM protease, 2 h, 37°C.
Turning to PSAL [P3-P1' tetramer cluster], the “relative probability (RP)” value is reported as 36.1873.
On the same count and under the same terms, as for PASL [P3-P1' tetramer cluster], the figure is 36.4285.

The same experiment, now with this note: tetramer projected onto MMP-2 cleavage sites determined by Prudova et al. (2010).
In the case of PSAL [P3-P1' tetramer cluster], the “relative probability (RP)” value is 36.19.
Still for that read-out and setting: then PASL [P3-P1' tetramer cluster], with 36.43.
